Test results taken from patent publication US5314999A, “Derivatives of basic polyene macrolides and their preparation” (Laboratoires Mayoly-Spindler, priority 1989, dated 1994).
Structures can show the parent of a compound that is named as a salt. Where two headings read alike, the source gives them in different places.

Legend:
Assay type in all cases: cell-based
PBL = test: Toxicity on nucleated cells, human PBL; conditions: 90 min
Protocol: (§1) B.2: Study of the toxicity on nucleated cells
(§2) The solutions of the amphotericine B derivatives are prepared similarly to those mentioned in paragraph B.1.
(§3) The cells are prepared by placing 20 ml of blood diluted to 1/2 with 0.9% NaCl into a tube together with 10 ml of Ficoll-hypaque, and the mixture is centrifuged at 2000 rpm for 30 minutes. The cell nuclei are recovered and washed twice with PBS buffer containing 5% of foetal calf serum.
(§4) The cells are prepared by suspending 1.14×10^6 cells/ml in RPMI 1640 containing 2.5% of foetal calf serum and by filling each well with 150 μl. 50 μl of each dilution of the derivatives are added and also one control (5% glucose solution).
(§5) The cells are then incubated in a steam cabinet at a CO2 concentration of 5% for 1 hour 30 at 37° C. or at ambient temperature.
(§6) To evaluate the toxicity of the derivatives, a cell count in the presence of trypan blue is made, and the LD 50 (concentration of the derivative leading to a mortality of 50%) is calculated with respect to the control (5% glucose solution) for each concentration of each derivative.

thymocytes = test: Toxicity on nucleated cells, mice thymocytes; conditions: 1 hour 30, trypan blue, 90 min, read-out: LD 50 (concentration leading to a mortality of 50%)
X 63 (mice lymphoma B) = test: Toxicity on nucleated cells, X 63 mice lymphoma B; conditions: 1 hour 30, trypan blue, 90 min, read-out: LD 50 (concentration leading to a mortality of 50%)
Candida albicans = test: Growth inhibition in liquid medium (Sabouraud broth); conditions: Sabouraud broth, 28° C., 18 hours, read-out: IC 50 (growth-inhibiting concentration of 50%)
Protocol: (§7) A.1 : Study of the antibiotic efficiency of AmB derivatives in liquid medium against different yeasts
(§8) The antibiotic efficiency was tested by the growth inhibition method in liquid medium (Sabouraud broth) in the presence of different concentrations of the derivatives studied.
(§9) A yeast suspension was cultivated in a broth in such a manner that about 1×10^2 cell/ml were obtained.
(§10) The tubes containing the different concentrations of antifungal substance were inoculated with the same amount of yeast cells, and were then incubated at 28° C. for 18 hours with stirring. For each concentration of antifungal substance, two identical tubes were prepared.
(§11) The inhibition of fungal growth corresponding to the different concentrations was evaluated for each molecule by spectrophotometry at 620 nm and expressed in percent with respect to a reference solution without antifungal substance.

Saccharomyces cerevisiae = test: as above; conditions: Sabouraud broth, 28° C., 18 hours, read-out: IC 50 (growth-inhibiting concentration of 50%)
Protocol: as §7, §8, §9, §10, §11

Aspergillus flavus = test: Diffusion method in agar-agar medium (Sabouraud agar-agar); conditions: Sabouraud agar-agar, disc diameter 1 cm, 0.1 ml
Protocol: (§12) A.2 : Study of the antibiotic efficiency of amphotericine B derivatives in agar-agar medium against Aspergillus
(§13) The antibiotic activity was tested by the diffusion method in agar-agar medium (Sabouraud agar-agar).
(§14) The efficiency of each molecule was determined by the size of the growth-inhibiting zone around a WHATMAN 3M paper disc impregnated with the antibiotic substance of a given concentration.
(§15) A suspension of Aspergillus spores in a broth was prepared, 0.2 ml of this suspension was used to inoculate at its surface an agar-agar medium which was solidified in such a manner that a homogeneous growth layer was obtained. After spreading, the WHATMAN 3M paper discs (diameter: 1 cm) were placed on the surface of the agar-agar, and then impregnated with 0.1 ml of the antibiotic substance at different concentrations.

Aspergillus fumigatus = test: as above; conditions: Sabouraud agar-agar, disc diameter 1 cm, 0.1 ml
Protocol: as §12, §13, §14, §15

red corpuscles [1] = test: Toxicity on red corpuscles (lysis), human; conditions: 37° C., 1 hour 30, 90 min, 90 min, read-out: LD 50 (dose which leads to lysis in 50% of the erythrocytes)
Protocol: (§16) B.1: Study of the toxicity on red corpuscles
(§17) All the solutions of the AmB derivatives according to the invention were prepared immediately before use by diluting 4 mg of substance in 100 μl of 5% glucose solution, and then, after 15 minutes protected from light, 100 μl of sterile distilled water are added, and the mixture is made up to stock solutions of 4 mg/ml with a 5% glucose solution. For comparative study of the effects of AmB, 4 mg of FUNGIZONE are diluted with 1 ml of 5% glucose.
(§18) The cells are prepared by placing 1 ml of a peripheral blood sample into a tube together with Ficollhypaque to remove the lymphocytes, and then centrifuging the mixture at 2000 rpm for 20 minutes. The remaining red corpuscles are recovered, washed once with 0.9% NaCl and then twice with 150 Mm KCl, 0.5 Mm tris-HCl, pH 7.4.
(§19) A 1.25% suspension is then prepared with 150 mM KCl solution, 0.5 mM tris-HCl, pH 7.4, and 150 μl thereof are distributed in wells along with 50 μl of each of the dilutions of the derivatives, plus a control well (5% glucose solution).
(§20) The cells are then incubated at 37° C. in a steam cabinet for 1 hour 30.
(§21) To evaluate the cell lysis, haemoglobin is essayed by removing 100 μl of the supernatant in each well and diluting the sample with 1 ml of distilled water.
(§22) The haemoglobin concentration is calculated by measuring the optical density at 540 nm and taking into account the absorption of the derivatives of amphotericine B.
(§23) LD 50 is the dose which leads to lysis in 50% of the erythrocytes (a control of 100% lysis is obtained with distilled water, and reference lysis of 0% is obtained with the 5% glucose solution).

red corpuscles [2] = test: Toxicity on red corpuscles (lysis), mice; conditions: 37° C., 1 hour 30, 90 min, read-out: LD 50 (dose which leads to lysis in 50% of the erythrocytes)
Protocol: as §16, §17, §18, §19, §20, §21, §22, §23

DAUDI (human lymphoma B) = test: Toxicity on nucleated cells, DAUDI human lymphoma B; conditions: 1 hour 30, trypan blue, 90 min, read-out: LD 50 (concentration leading to a mortality of 50%)
[3] = Toxicity on nucleated cells, mice thymocytes; conditions: mouse, thymocytes, 1 hour 30, trypan blue, read-out: LD 50 (concentration leading to a mortality of 50%)
[4] = Toxicity on nucleated cells, human thymocytes; conditions: 1 hour 30, trypan blue, read-out: LD 50 (concentration leading to a mortality of 50%)
Protocol: as §1, §2, §3, §4, §5, §6

Cryptoccocus neoformans = test: Growth inhibition in liquid medium (Sabouraud broth); conditions: Sabouraud broth, 28° C., 18 hours; read-out: IC 50 (growth-inhibiting concentration of 50%)
Protocol: as §7, §8, §9, §10, §11

Pytirosporum orbiculare = test: as above; conditions: Sabouraud broth, 28° C., 18 hours; read-out: IC 50 (growth-inhibiting concentration of 50%)
Protocol: as §7, §8, §9, §10, §11

[5] = Toxicity on nucleated cells, human bone marrow; conditions: 1 hour 30, trypan blue, read-out: LD 50 (concentration leading to a mortality of 50%)
Protocol: as §1, §2, §3, §4, §5, §6

[6] = Toxicity on nucleated cells, mice B lymph gland cells; conditions: mouse, 1 hour 30, trypan blue, read-out: LD 50 (concentration leading to a mortality of 50%)
Protocol: as §1, §2, §3, §4, §5, §6

[7] = Toxicity on nucleated cells, mice T lymph gland cells; conditions: mouse, 1 hour 30, trypan blue, read-out: LD 50 (concentration leading to a mortality of 50%)
Protocol: as §1, §2, §3, §4, §5, §6

[8] = human PBL, 1 hour 30, trypan blue, read-out: LD 50 (concentration leading to a mortality of 50%)

Row | SMILES | CC50 (thymocytes) [µM] | CC50 (PBL; [8]) [µM] | CC50 (X 63 (mice lymphoma B)) [µM] | IC50 (Candida albicans) [µM] | IC50 (Saccharomyces cerevisiae) [µM] | concentration giving a growth inhibition of 1 cm around a disc in solid medium (Aspergillus flavus) | concentration giving a growth inhibition of 1 cm around a disc in solid medium (Aspergillus fumigatus) | HC50 (red corpuscles [1]) [µM] | CC50 (DAUDI (human lymphoma B)) [µM] | IC50 (Cryptoccocus neoformans) [µM] | HC50 (red corpuscles [2]; 90 min) [µM] | further results
1 | C[C@@H]1[C@H](O)[C@@H](C)/C=C/C=C/C=C/C=C/C=C/C=C/C=C/[C@H](O[C@@H]2O[C@H](C)[C@@H](O)[C@H](NCC3(O)O[C@H](C(N)=O)[C@@H](O)[C@@H]3O)[C@@H]2O)C[C@@H]2O[C@](O)(C[C@@H](O)C[C@@H](O)[C@H](O)CC[C@@H](O)C[C@@H](O)CC(=O)O[C@H]1C)C[C@H](O)[C@H]2C(=O)O (stereo partly drawn) [Acetic acid NMG salt] |  |  |  |  |  |  |  |  |  |  |  | CC50 (PBL; human PBLs, AmB 12 derivative, comparison of different catalysts (Table 4), read-out: LD 50 (the source's name)): 200 µM
2 | C[C@@H]1[C@H](O)[C@@H](C)/C=C/C=C/C=C/C=C/C=C/C=C/C=C/[C@H](O[C@@H]2O[C@H](C)[C@@H](O)[C@H](NCC3(O)O[C@H](C(N)=O)[C@@H](O)[C@@H]3O)[C@@H]2O)C[C@@H]2O[C@](O)(C[C@@H](O)C[C@@H](O)[C@H](O)CC[C@@H](O)C[C@@H](O)CC(=O)O[C@H]1C)C[C@H](O)[C@H]2C(=O)O (stereo partly drawn) [AmB 12 G, 1-amino-1-deoxy-D-arabinoglucuronamidyl-AmB] | 5 | 46 | 500 | 0.1 | 0.62 | 9 × 10^-5 molarity | 1 × 10^-4 molarity | 30 | > 300 |  |  | HC50 (red corpuscles [2]): 20 µM
3 | C[C@@H]1[C@H](O)[C@@H](C)/C=C/C=C/C=C/C=C/C=C/C=C/C=C/[C@H](O[C@@H]2O[C@H](C)[C@@H](O)[C@H](NCC3(O)O[C@H](C(=O)O)[C@@H](O)[C@@H]3O)[C@@H]2O)C[C@@H]2O[C@](O)(C[C@@H](O)C[C@@H](O)[C@H](O)CC[C@@H](O)C[C@@H](O)CC(=O)O[C@H]1C)C[C@H](O)[C@H]2C(=O)O (stereo partly drawn) [AmB 17 F, 1-amino-1-deoxy-D-arabinoglucuronyl-AmB] |  | > 1000 | > 1000 |  |  | 2 × 10^-4 molarity | 2 × 10^-4 molarity | 200 | > 1000 | 0.15 | 30 | CC50 at 1.5 h [3]: 8 µM; CC50 at 1.5 h [4]: > 300 µM; IC50 (Candida albicans; Candida albicans, 18 h): 0.13 µM; IC50 (Saccharomyces cerevisiae; Saccharomyces cerevisiae, 18 h): 1.4 µM; IC50 (Pytirosporum orbiculare): 0.09 µM; CC50 at 1.5 h [5]: > 1000 µM; CC50 at 1.5 h [6]: 150 µM; CC50 at 1.5 h [7]: 20 µM
4 | C[C@@H]1[C@H](O)[C@@H](C)/C=C/C=C/C=C/C=C/C=C/C=C/C=C/[C@H](O[C@@H]2O[C@H](C)[C@@H](O)[C@H](NCC3(O)O[C@H](C(=O)O)[C@@H](O)[C@@H]3O)[C@@H]2O)C[C@@H]2O[C@](O)(C[C@@H](O)C[C@@H](O)[C@H](O)CC[C@@H](O)C[C@@H](O)CC(=O)O[C@H]1C)C[C@H](O)[C@H]2C(=O)O (stereo partly drawn) [AmB 17 G, 1-amino-1-deoxy-D-arabinoglucuronyl-AmB] | 5 | 10 | 150 |  | 0.86 | 9 × 10^-5 molarity | 3.5 × 10^-5 molarity | 50 | 300 | 0.06 | 10 | 
5 | C[C@@H]1[C@H](O)[C@@H](C)/C=C/C=C/C=C/C=C/C=C/C=C/C=C/[C@H](O[C@@H]2O[C@H](C)[C@@H](O)[C@H](NCC(=O)[C@@H](O)[C@@H]3OC(c4ccccc4)OC[C@H]3O)[C@@H]2O)C[C@@H]2O[C@](O)(C[C@@H](O)C[C@@H](O)[C@H](O)CC[C@@H](O)C[C@@H](O)CC(=O)O[C@H]1C)C[C@H](O)[C@H]2C(=O)O (stereo partly drawn) [AmB 20 G, 1-deoxy-1-amino-4,6O-benzylidene-D-fructosyl-AmB] | 4 | 30 | 150 | 0.1 | 1 | 6 × 10^-4 molarity | 1.3 × 10^-4 molarity | 80 | 500 | 0.06 | 4 | 
6 | CC1OC[C@@H](O)[C@H]([C@H](O)C(=O)CN[C@@H]2[C@H](O)[C@H](O[C@H]3/C=C/C=C/C=C/C=C/C=C/C=C/C=C/[C@H](C)[C@@H](O)[C@@H](C)[C@H](C)OC(=O)C[C@H](O)C[C@H](O)CC[C@@H](O)[C@H](O)C[C@H](O)C[C@]4(O)C[C@H](O)[C@@H](C(=O)O)[C@H](C3)O4)O[C@H](C)[C@H]2O)O1 (stereo partly drawn) [AmB 22 G, 1-deoxy-1-amino-4,6-O-ethylidene-D-fructosyl-AmB] | 5 | 30 | 400 | 0.09 | 1.2 | 9 × 10^-5 molarity | 1 × 10^-4 molarity | 50 | 700 | 0.12 | 10 | 
7 | CC(=O)NC[C@H]1OC(O)(CN[C@@H]2[C@H](O)[C@H](O[C@H]3/C=C/C=C/C=C/C=C/C=C/C=C/C=C/[C@H](C)[C@@H](O)[C@@H](C)[C@H](C)OC(=O)C[C@H](O)C[C@H](O)CC[C@@H](O)[C@H](O)C[C@H](O)C[C@]4(O)C[C@H](O)[C@@H](C(=O)O)[C@H](C3)O4)O[C@H](C)[C@H]2O)[C@@H](O)[C@@H]1O (stereo partly drawn) [AmB 23 G, 6-deoxy-6-N-acetyl-1-deoxy-1-amino-fructosyl-AmB] | 2.5 | 8 | 500 |  | 1 | 5 × 10^-4 molarity | 9 × 10^-5 molarity | 1 | 300 | 0.17 | 4 | 
